{"source": "patent US8334253B2", "about": "“Cosmetic and dermatological formulations of MNTF peptides” (Dermacare Neuroscience Institute, priority 2008, dated 2012)", "system": "hyaluronic acid levels in adult human dermal fibroblast (aHDF) conditioned media", "test": "Hyaluronic acid in fibroblast-conditioned medium (HA-ELISA)", "assay_type": "cell-based", "details": "positive control, 5 ng/ml, 96 h", "source_text": "Hyaluronic acid (hyaluronan, HA), a naturally occurring carbohydrate polymer is a key component of connective, epithelial and neural tissues. HA participates in hydrodynamics, movement and proliferation of cells. This test was designed to determine whether a sample of palmitylated and non-palmitylated MNTF hexapeptide has an effect on hyaluronic acid levels in the adult human dermal fibroblast (aHDF) conditioned media.\nAdult HDF (facial, passage 2, Cell Applications, San Diego, Calif. cat.#106-05A lot#1392) were plated in high glucose phosphate-free DMEM supplemented with 5% cosmic serum from Hyclone, Utah) at 6,000 cells per well and test materials were added the following day. Test materials were: Pal-Hexapeptide (palmitylated SEQ ID NO:2 as a lyophilized powder labeled APC 341055, lot V08150A1, received from DermaCare Neuroscience Institute), type I sterile water (negative control) and basic fibroblast growth factor (bFGF, positive control). Pal-Hexapeptide was dissolved in water at 20 mg/ml. Final concentrations tested were: 400, 200, 100, 50 and 25 ug/ml for DNP and 5 ng/ml for bFGF (plate 507). After 96 h, cell culture conditioned media were collected and 100 ul aliquotes were used for the HA assay. HA assay was performed using Hyaluronan Enzyme-Linked Immunosorbent Assay Kit (HA-ELISA, cat. #K-1200) from Echelon (Salt Lake City, Utah). The HA output was measured by following the generation of a chromophoric reaction product in 96 well plate, with the use of a BioRad microplate reader at 410 nm and the effect of the test materials was determined using the formula: Absorbance 410 (sample)/Absorbance 410 (Zero HA)×100.\nAdult HDF (facial, passage 2, Cell Applications, San Diego, Calif. cat.#106-05A lot#1392) were plated in high glucose phosphate-free DMEM supplemented with 5% cosmic serum from Hyclone, Utah) at 6,000 cells per well and test materials were added the following day. Test materials were: hexapeptide (SEQ ID NO:2 (non-palmitylated), lyophilized powder lot #D294, received from DermaCare Neuroscience Institute), type I sterile water (negative control) and basic fibroblast growth factor (bFGF, positive control). Pal-Hexapeptide was dissolved in water at 20 mg/ml. Final concentrations tested were: 2000, 1000, 500 and 250 ug/ml for hexapeptide and 5 ng/ml for bFGF (plate 507). After 96 h, cell culture conditioned media were collected and 100 ul aliquotes were used for the HA assay. HA assay was performed using Hyaluronan Enzyme-Linked Immunosorbent Assay Kit (HA-ELISA, cat. #K-1200) from Echelon (Salt Lake City, Utah). The HA output was measured by following the generation of a chromophoric reaction product in 96 well plate, with the use of a BioRad microplate reader at 410 nm and the effect of the test materials was determined using the formula: Absorbance 410 (sample)/Absorbance 410 (Zero HA)×100."}
{"substance": "basic fibroblast growth factor [bFGF, reference compound]", "values": [{"measurement": "stimulation of hyaluronic acid in the fibroblast-conditioned medium", "value": "moderately stimulatory activity"}]}
